Where two headings read alike, the source gives them in different places.
What was measured:
[1] = system: p-SLP-76 (Ser376) in Jurkat cells; test: pSLP76 Cellular Assay (AlphaLISA SureFire Ultra p-SLP-76 (Ser376), anti-CD3 activated Jurkat cells); format: cell-based; settings: Homo sapiens; Jurkat cells, anti-CD3 stimulation, pSLP76; read-out: Cellular Potency
Procedure, shortened: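 Read-out is AlphaLISA p-SLP-76 (Ser376) signal at 570 nm in Jurkat lysates, with IC50 fitted by 4-parameter logistic. Cells were starved overnight, exposed 1 h at 37 °C to 22 twofold compound dilutions in HBSS, then activated 45 min with anti-CD3 (0.025 mg/ml stock added).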

HPK1 = HPK1 (Homo sapiens, UniProt Q92918); test: HPK1 Biochemical Assay (ADP-Glo luminescence; low ATP 10 μM or high ATP 200 μM)
Sequence of HPK1 (Q92918 whole entry, species assumed): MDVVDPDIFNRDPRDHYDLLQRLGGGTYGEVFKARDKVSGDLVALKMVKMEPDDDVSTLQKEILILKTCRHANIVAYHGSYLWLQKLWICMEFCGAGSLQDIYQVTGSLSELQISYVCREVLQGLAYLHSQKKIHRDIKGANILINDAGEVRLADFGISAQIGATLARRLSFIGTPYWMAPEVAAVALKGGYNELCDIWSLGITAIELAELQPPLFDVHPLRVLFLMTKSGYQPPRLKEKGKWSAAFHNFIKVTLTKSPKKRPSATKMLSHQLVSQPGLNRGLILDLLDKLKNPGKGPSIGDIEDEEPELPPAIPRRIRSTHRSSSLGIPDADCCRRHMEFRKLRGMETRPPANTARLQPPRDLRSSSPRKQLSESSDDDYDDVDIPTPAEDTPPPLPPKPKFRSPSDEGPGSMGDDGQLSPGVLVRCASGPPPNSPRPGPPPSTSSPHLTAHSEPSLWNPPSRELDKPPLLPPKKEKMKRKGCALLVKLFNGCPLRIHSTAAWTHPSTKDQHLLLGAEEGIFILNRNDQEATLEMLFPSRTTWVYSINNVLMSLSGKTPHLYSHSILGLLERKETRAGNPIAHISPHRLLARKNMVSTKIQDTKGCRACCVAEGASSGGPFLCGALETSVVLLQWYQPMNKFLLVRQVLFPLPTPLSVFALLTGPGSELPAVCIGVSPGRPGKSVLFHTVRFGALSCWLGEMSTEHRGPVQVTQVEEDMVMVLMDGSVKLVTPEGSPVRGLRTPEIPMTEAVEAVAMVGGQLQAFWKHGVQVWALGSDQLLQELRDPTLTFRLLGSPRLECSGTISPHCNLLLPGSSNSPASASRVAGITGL

[2] = 2 nM HPK1, 10 μM ATP, read-out: Biochemical Potency (low ATP)

| IC50 [1] | IC50 (HPK1; [2]) | IC50 (HPK1; 5 nM HPK1, 200 μM ATP, read-out: Biochemical Potency (high ATP)) | Compound |
| --- | --- | --- | --- |
| 100 to 1000 nM | < 100 nM |  | CC(C)(O)c1cc(-c2nc3cc(Nc4ccnc(N5C[C@@H]6C[C@H]5CN6)n4)ncc3s2)ccn1 [Example 120, 2-{4-[6-({2-[(1S,4S)-2,5-Diazabicyclo[2.2.1]heptan-2-yl]pyrimidin-4-yl}amino)-[1,3]thiazolo[5,4-c]pyridin-2-yl]pyridin-2-yl}propan-2-ol] |
| 100 to 1000 nM | < 100 nM |  | CN1C[C@@H]2C[C@H]1CN2c1cccc(Nc2cc3nc(-c4cccc(C(N)=O)c4)sc3cn2)n1 [Example 128, 3-[6-({6-[(1S,4S)-5-Methyl-2,5-diazabicyclo[2.2.1]heptan-2-yl]pyridin-2-yl}amino)-[1,3]thiazolo[5,4-c]pyridin-2-yl]benzamide] |
| 100 to 1000 nM | < 100 nM |  | CN1C[C@@H]2C[C@H]1CN2c1cccc(Nc2cc3nc(-c4cccc(C(=O)N5CCCC5)c4)sc3cn2)n1 [Example 130, 6-[(1S,4S)-5-Methyl-2,5-diazabicyclo[2.2.1]heptan-2-yl]-N-{2-[3-(pyrrolidine-1-carbonyl)phenyl]-[1,3]thiazolo[5,4-c]pyridin-6-yl}pyridin-2-amine] |
| < 100 nM | < 100 nM |  | CN1C[C@@H]2C[C@H]1CN2c1cccc(Nc2cc3nc(-c4cccc(C(C)(C)O)c4)sc3cn2)n1 [Example 132, 2-{3-[6-({6-[(1S,4S)-5-Methyl-2,5-diazabicyclo[2.2.1]heptan-2-yl]pyridin-2-yl}amino)-[1,3]thiazolo[5,4-c]pyridin-2-yl]phenyl}propan-2-ol] |
| > 5000 nM | < 100 nM |  | CN1C[C@@H]2C[C@H]1CN2c1cccc(Nc2cc3nc(-c4cccc(C#N)c4)sc3cn2)n1 [Example 133, 3-[6-({6-[(1S,4S)-5-Methyl-2,5-diazabicyclo[2.2.1]heptan-2-yl]pyridin-2-yl}amino)-[1,3]thiazolo[5,4-c]pyridin-2-yl]benzonitrile] |
| 1000 to 5000 nM | < 100 nM |  | CNC(=O)c1cccc(-c2nc3cc(Nc4cccc(N5C[C@@H]6C[C@H]5CN6C)n4)ncc3s2)c1 [Example 135, N-Methyl-3-[6-({6-[(1S,4S)-5-methyl-2,5-diazabicyclo[2.2.1]heptan-2-yl]pyridin-2-yl}amino)-[1,3]thiazolo[5,4-c]pyridin-2-yl]benzamide] |
| 100 to 1000 nM | < 100 nM |  | CN(C)C(=O)c1cccc(-c2nc3cc(Nc4cccc(N5C[C@@H]6C[C@H]5CN6C)n4)ncc3s2)c1 [Example 137, N,N-Dimethyl-3-[6-({6-[(1S,4S)-5-methyl-2,5-diazabicyclo[2.2.1]heptan-2-yl]pyridin-2-yl}amino)-[1,3]thiazolo[5,4-c]pyridin-2-yl]benzamide] |
| 100 to 1000 nM | < 100 nM |  | CN(C)C(=O)c1cccc(-c2nc3cc(Nc4cccc(N5C[C@@H]6C[C@H]5CN6)n4)ncc3s2)c1 [Example 140, 3-[6-({6-[(1S,4S)-2,5-Diazabicyclo[2.2.1]heptan-2-yl]pyridin-2-yl}amino)-[1,3]thiazolo[5,4-c]pyridin-2-yl]-N,N-dimethylbenzamide] |

The remaining lines, values behind:

| Compound | IC50 [1] | IC50 (HPK1; [2]) | IC50 (HPK1; 5 nM HPK1, 200 μM ATP, read-out: Biochemical Potency (high ATP)) |
| --- | --- | --- | --- |
| Cc1cccnc1-c1nc2cc(Nc3ccc(Cl)c(N4C[C@@H]5C[C@H]4CN5C)n3)ncc2s1 [Example 110, 5-Chloro-6-[(1S,4S)-5-methyl-2,5-diazabicyclo[2.2.1]heptan-2-yl]-N-[2-(3-methylpyridin-2-yl)-[1,3]thiazolo[5,4-c]pyridin-6-yl]pyridin-2-amine] | 100 to 1000 nM | < 100 nM |  |
| Cc1cccnc1-c1nc2cc(Nc3ccc(C)c(N4C[C@@H]5CCN(C)[C@@H]5C4)n3)ncc2s1 [Example 112, 6-[(3aS,6aS)-1-Methyl-octahydropyrrolo[3,4-b]pyrrol-5-yl]-5-methyl-N-[2-(3-methylpyridin-2-yl)-[1,3]thiazolo[5,4-c]pyridin-6-yl]pyridin-2-amine] | > 5000 nM | < 100 nM |  |
| Cc1cccnc1-c1nc2cc(Nc3cccc(N4CCN5CCC[C@@H]5C4)n3)ncc2s1 [Example 114, 6-[(8aR)—Octahydropyrrolo[1,2-a]pyrazin-2-yl]-N-[2-(3-methylpyridin-2-yl)-[1,3]thiazolo[5,4-c]pyridin-6-yl]pyridin-2-amine] | > 5000 nM | < 100 nM |  |
| Cc1cccnc1-c1nc2cc(Nc3cccc(C4CCN(C)CC4)n3)ncc2s1 [Example 115, 6-(1-Methylpiperidin-4-yl)-N-[2-(3-methylpyridin-2-yl)-[1,3]thiazolo[5,4-c]pyridin-6-yl]pyridin-2-amine] | > 5000 nM | < 100 nM |  |
| Cc1cccnc1-c1nc2cc(Nc3cccc(N4C[C@@H]5C[C@H]4CN5C(C)C)n3)ncc2s1 [Example 116, N-[2-(3-Methylpyridin-2-yl)-[1,3]thiazolo[5,4-c]pyridin-6-yl]-6-[(1S,4S)-5-(propan-2-yl)-2,5-diazabicyclo[2.2.1]heptan-2-yl]pyridin-2-amine] | 1000 to 5000 nM | < 100 nM |  |
| Cc1cccnc1-c1nc2cc(Nc3cc(F)cc(N4C[C@@H]5C[C@H]4CN5C)n3)ncc2s1 [Example 119, 4-Fluoro-6-[(1S,4S)-5-methyl-2,5-diazabicyclo[2.2.1]heptan-2-yl]-N-[2-(3-methylpyridin-2-yl)-[1,3]thiazolo[5,4-c]pyridin-6-yl]pyridin-2-amine] | 100 to 1000 nM | < 100 nM |  |
| CN1C[C@@H]2C[C@H]1CN2c1nccc(Nc2cc3nc(-c4cccc(N5CC[C@H](O)C5)c4)sc3cn2)n1 [Example 123, (3S)-1-{3-[6-({2-[(1S,4S)-5-Methyl-2,5-diazabicyclo[2.2.1]heptan-2-yl]pyrimidin-4-yl}amino)-[1,3]thiazolo[5,4-c]pyridin-2-yl]phenyl}pyrrolidin-3-ol] | 1000 to 5000 nM | < 100 nM | < 100 nM |
| Cc1ccc(-c2nc3cc(Nc4cccc(N5C[C@@H]6C[C@H]5CN6C)n4)ncc3s2)c(C)n1 [Example 129, N-[2-(2,6-Dimethylpyridin-3-yl)-[1,3]thiazolo[5,4-c]pyridin-6-yl]-6-[(1S,4S)-5-methyl-2,5-diazabicyclo[2.2.1]heptan-2-yl]pyridin-2-amine] | > 5000 nM | < 100 nM |  |
| CN1C[C@@H]2C[C@H]1CN2c1cccc(Nc2cc3nc(-c4cncc(S(C)(=O)=O)c4)sc3cn2)n1 [Example 131, N-[2-(5-Methanesulfonylpyridin-3-yl)-[1,3]thiazolo[5,4-c]pyridin-6-yl]-6-[(1S,4S)-5-methyl-2,5-diazabicyclo[2.2.1]heptan-2-yl]pyridin-2-amine] | 1000 to 5000 nM | < 100 nM |  |
| Cc1c(-c2nc3cc(Nc4cccc(N5C[C@@H]6C[C@H]5CN6C)n4)ncc3s2)cnc2c1NCCO2 [Example 134, N-(2-{8-Methyl-1H,2H,3H-pyrido[2,3-b][1,4]oxazin-7-yl}-[1,3]thiazolo[5,4-c]pyridin-6-yl)-6-[(1S,4S)-5-methyl-2,5-diazabicyclo[2.2.1]heptan-2-yl]pyridin-2-amine] | 1000 to 5000 nM | < 100 nM |  |
| Cc1ccncc1-c1nc2cc(Nc3cccc(N4C[C@@H]5C[C@H]4CN5C)n3)ncc2s1 [Example 139, 6-[(1S,4S)-5-Methyl-2,5-diazabicyclo[2.2.1]heptan-2-yl]-N-[2-(4-methylpyridin-3-yl)-[1,3]thiazolo[5,4-c]pyridin-6-yl]pyridin-2-amine] | 100 to 1000 nM | < 100 nM |  |
